Results: US8501775B2, “Anthelmintics for preventing parasitic infections in humans and animals” (SALTIGO GmbH, priority 2000, dated 2013)

System: cercariae of Schistosoma mansoni
Assay: not given
Settings: topical, monkeys; literature statement; cited from earlier work

Structure (SMILES) | action against the penetration of cercariae
O=C(Nc1ccc([N+](=O)[O-])cc1Cl)c1cc(Cl)ccc1O [Niclosamide] | acts against the penetration of cercariae

System: Schistosoma mansoni cercariae
Assay: Activity against Schistosoma mansoni cercariae (survival/mobility observed with a stereomagnifier)
Design: key: no effect during the entire test period of 120 minutes; 1: weak effect (the cercariae have a strongly reduced mobility); 2: good effect (the cercariae are only slightly mobile and bent); 3: full effect (the cercariae are completely immobile)
Settings: 500 μl/l final concentration of the active compounds; test period of 120 minutes
Protocol: Activity Against Schistosoma mansoni Cercariae
Snails (Biomphalaria glabrata) were infected by incubating each of them with 8 miracidia in 10 ml of water overnight. About 6 to 9 weeks after the infection, cercariae were obtained by irradiating the snails, which had been kept in darkness, with light, followed by collection of the swarming cercariae within 2 hours.
Such an amount of cercariae-containing water (1 or 2 ml, see below) was added to the test batches that each batch contained about 100 to 150 cercariae.
9 ml of aquarium water was then added, and the batch was shaken vigorously. After (delayed) addition of 1 ml of cercariae suspension, survival of the cercariae was in each case observed immediately using a stereomagnifier.

Structure (SMILES) | Assessment
CC(C)(C)OC(=O)N1CCCCC1CCO (stereo not shown) | 3
C=CCOC(=O)N1CCCCC1CCO (stereo not shown) | 3
CCCCOC(=O)N1CCCCC1CCO (stereo not shown) | 3
CCC(C)OC(=O)N1CCCCC1CCO (stereo not shown) | 2
CCC(C)COC(=O)N(C)CCCO (stereo not shown) | 1
CCCCOC(=O)N(C)CCCO | 1
CN(CCCO)C(=O)OC1CCCCC1 | 1
C=CCCOC(=O)N(C)CCCO | 2

System: cercariae of Schistosoma mansoni
Assay: not given
Settings: literature statement; cited from earlier work

Structure (SMILES) | effect on cercariae of Schistosoma mansoni
CCN(CC)C(=O)c1cccc(C)c1 [DEET, N,N-Diethyl-m-toluamide] | acts against cercariae
Oc1c(Cl)cc(Cl)c(Cl)c1Cc1c(O)c(Cl)cc(Cl)c1Cl [hexachlorophene] | lethal effect

System: not given
Assay: not given
Settings: literature / regulatory statement; cited from earlier work

Structure (SMILES) | toxicity / hazard
O=C(Nc1ccc([N+](=O)[O-])cc1Cl)c1cc(Cl)ccc1O [Niclosamide] | may possibly cause inheritable genetic damage
Oc1c(Cl)cc(Cl)c(Cl)c1Cc1c(O)c(Cl)cc(Cl)c1Cl [hexachlorophene] | toxic on contact with the skin and when swallowed
